Laboratory results: a compilation of properties of binary mixtures (doi:10.1007/s11426-012-4655-1)

Experiment: xn = mol fraction of the nth substance listed
Details: 101 kPa

CCCCCC[n+]1ccn(C)c1.F[P-](F)(F)(F)(F)F + CCCCCC[n+]1ccn(C)c1.[Cl-]
Details	electrical conductivity [S/m]	viscosity [mPa·s]
303 K, x2 = 0	0.0747	–
303 K, x2 = 0.2	0.0399	–
303 K, x2 = 0.4	0.0205	–
303 K, x2 = 0.6	0.0104	–
303 K, x2 = 0.8	0.0054	–
303.15 K, x2 = 0	–	500
308 K, x2 = 0	0.0993	–
308 K, x2 = 0.2	0.0556	–
308 K, x2 = 0.6	0.0158	–
308 K, x2 = 0.8	0.0086	–
308.15 K, x2 = 0.2	–	680
308.15 K, x2 = 0.4	–	1238
313 K, x2 = 0.2	0.0751	–
313 K, x2 = 0.6	0.0235	–
313 K, x2 = 0.8	0.0133	–
313.15 K, x2 = 0	–	273
313.15 K, x2 = 0.2	–	490
313.15 K, x2 = 0.4	–	850
313.15 K, x2 = 0.6	–	1501
318 K, x2 = 0	0.166	–
318 K, x2 = 0.2	0.1	–
318 K, x2 = 0.4	0.0584	–
318 K, x2 = 0.8	0.0199	–
318.15 K, x2 = 0	–	208
318.15 K, x2 = 0.2	–	360
318.15 K, x2 = 0.6	–	1014
323 K, x2 = 0	0.21	–
323 K, x2 = 0.2	0.131	–
323 K, x2 = 0.4	0.0793	–
323 K, x2 = 0.6	0.0476	–
323 K, x2 = 0.8	0.0291	–
323.15 K, x2 = 0	–	162
323.15 K, x2 = 0.2	–	268
323.15 K, x2 = 0.4	–	430
323.15 K, x2 = 0.8	–	1154
328 K, x2 = 0.2	0.166	–
328 K, x2 = 0.4	0.105	–
328 K, x2 = 0.6	0.0648	–
328.15 K, x2 = 0	–	128
328.15 K, x2 = 0.4	–	322
328.15 K, x2 = 0.6	–	500
328.15 K, x2 = 0.8	–	790
333 K, x2 = 0	0.319	–
333 K, x2 = 0.2	0.21	–
333 K, x2 = 0.4	0.137	–
333 K, x2 = 0.6	0.0875	–
333 K, x2 = 0.8	0.0582	–
333.15 K, x2 = 0	–	102
333.15 K, x2 = 0.2	–	159
333.15 K, x2 = 0.4	–	242
333.15 K, x2 = 0.6	–	370
333.15 K, x2 = 0.8	–	550

CCCCCCCCn1cc[n+](C)c1.[Cl-] + CCCCCCCCn1cc[n+](C)c1.F[B-](F)(F)F
x1 = 1
Details	electrical conductivity [S/m]	viscosity [mPa·s]
303 K	0.0021	–
308 K	0.0035	–
318 K	0.0086	–
323 K	0.0129	–
323.15 K	–	2043
328 K	0.0187	–
333 K	0.0266	–
333.15 K	–	930

CCCCCCCCn1cc[n+](C)c1.F[B-](F)(F)F + CCCCCCCCn1cc[n+](C)c1.[Cl-]
Details	electrical conductivity [S/m]	viscosity [mPa·s]
303 K, x2 = 0.2	0.0443	–
303 K, x2 = 0.4	0.0225	–
303 K, x2 = 0.6	0.011	–
303.15 K, x2 = 0.2	–	530
303.15 K, x2 = 0.6	–	2399
308 K, x2 = 0	0.107	–
308 K, x2 = 0.2	0.0605	–
308 K, x2 = 0.4	0.0317	–
308 K, x2 = 0.6	0.0163	–
308 K, x2 = 0.8	0.0085	–
308.15 K, x2 = 0	–	194
308.15 K, x2 = 0.2	–	380
308.15 K, x2 = 0.4	–	760
308.15 K, x2 = 0.6	–	1565
313 K, x2 = 0	0.137	–
313 K, x2 = 0.2	0.0801	–
313 K, x2 = 0.4	0.0438	–
313 K, x2 = 0.8	0.0128	–
313.15 K, x2 = 0	–	149
313.15 K, x2 = 0.2	–	279
313.15 K, x2 = 0.4	–	530
313.15 K, x2 = 0.6	–	1065
313.15 K, x2 = 0.8	–	2245
318 K, x2 = 0.4	0.0595	–
318 K, x2 = 0.8	0.0186	–
318.15 K, x2 = 0	–	116
318.15 K, x2 = 0.2	–	211
318.15 K, x2 = 0.4	–	390
318.15 K, x2 = 0.6	–	740
323 K, x2 = 0	0.215	–
323 K, x2 = 0.2	0.136	–
323 K, x2 = 0.4	0.0791	–
323 K, x2 = 0.8	0.0264	–
323.15 K, x2 = 0	–	92
323.15 K, x2 = 0.2	–	162
323.15 K, x2 = 0.4	–	287
323.15 K, x2 = 0.6	–	520
323.15 K, x2 = 0.8	–	1015
328 K, x2 = 0	0.263	–
328 K, x2 = 0.4	0.102	–
328 K, x2 = 0.6	0.0607	–
328 K, x2 = 0.8	0.0366	–
328.15 K, x2 = 0	–	74
328.15 K, x2 = 0.2	–	127
328.15 K, x2 = 0.4	–	216
328.15 K, x2 = 0.6	–	370
328.15 K, x2 = 0.8	–	710
333 K, x2 = 0.2	0.211	–
333 K, x2 = 0.4	0.13	–
333 K, x2 = 0.6	0.0797	–
333 K, x2 = 0.8	0.0514	–
333.15 K, x2 = 0.2	–	100
333.15 K, x2 = 0.4	–	166
333.15 K, x2 = 0.6	–	279
333.15 K, x2 = 0.8	–	500
